These results are taken from patent US8895733B2 (Novartis AG, priority 2010, dated 2014).

pIC50: −log10 of the molar value.

T1 sequence (Q15858 whole entry): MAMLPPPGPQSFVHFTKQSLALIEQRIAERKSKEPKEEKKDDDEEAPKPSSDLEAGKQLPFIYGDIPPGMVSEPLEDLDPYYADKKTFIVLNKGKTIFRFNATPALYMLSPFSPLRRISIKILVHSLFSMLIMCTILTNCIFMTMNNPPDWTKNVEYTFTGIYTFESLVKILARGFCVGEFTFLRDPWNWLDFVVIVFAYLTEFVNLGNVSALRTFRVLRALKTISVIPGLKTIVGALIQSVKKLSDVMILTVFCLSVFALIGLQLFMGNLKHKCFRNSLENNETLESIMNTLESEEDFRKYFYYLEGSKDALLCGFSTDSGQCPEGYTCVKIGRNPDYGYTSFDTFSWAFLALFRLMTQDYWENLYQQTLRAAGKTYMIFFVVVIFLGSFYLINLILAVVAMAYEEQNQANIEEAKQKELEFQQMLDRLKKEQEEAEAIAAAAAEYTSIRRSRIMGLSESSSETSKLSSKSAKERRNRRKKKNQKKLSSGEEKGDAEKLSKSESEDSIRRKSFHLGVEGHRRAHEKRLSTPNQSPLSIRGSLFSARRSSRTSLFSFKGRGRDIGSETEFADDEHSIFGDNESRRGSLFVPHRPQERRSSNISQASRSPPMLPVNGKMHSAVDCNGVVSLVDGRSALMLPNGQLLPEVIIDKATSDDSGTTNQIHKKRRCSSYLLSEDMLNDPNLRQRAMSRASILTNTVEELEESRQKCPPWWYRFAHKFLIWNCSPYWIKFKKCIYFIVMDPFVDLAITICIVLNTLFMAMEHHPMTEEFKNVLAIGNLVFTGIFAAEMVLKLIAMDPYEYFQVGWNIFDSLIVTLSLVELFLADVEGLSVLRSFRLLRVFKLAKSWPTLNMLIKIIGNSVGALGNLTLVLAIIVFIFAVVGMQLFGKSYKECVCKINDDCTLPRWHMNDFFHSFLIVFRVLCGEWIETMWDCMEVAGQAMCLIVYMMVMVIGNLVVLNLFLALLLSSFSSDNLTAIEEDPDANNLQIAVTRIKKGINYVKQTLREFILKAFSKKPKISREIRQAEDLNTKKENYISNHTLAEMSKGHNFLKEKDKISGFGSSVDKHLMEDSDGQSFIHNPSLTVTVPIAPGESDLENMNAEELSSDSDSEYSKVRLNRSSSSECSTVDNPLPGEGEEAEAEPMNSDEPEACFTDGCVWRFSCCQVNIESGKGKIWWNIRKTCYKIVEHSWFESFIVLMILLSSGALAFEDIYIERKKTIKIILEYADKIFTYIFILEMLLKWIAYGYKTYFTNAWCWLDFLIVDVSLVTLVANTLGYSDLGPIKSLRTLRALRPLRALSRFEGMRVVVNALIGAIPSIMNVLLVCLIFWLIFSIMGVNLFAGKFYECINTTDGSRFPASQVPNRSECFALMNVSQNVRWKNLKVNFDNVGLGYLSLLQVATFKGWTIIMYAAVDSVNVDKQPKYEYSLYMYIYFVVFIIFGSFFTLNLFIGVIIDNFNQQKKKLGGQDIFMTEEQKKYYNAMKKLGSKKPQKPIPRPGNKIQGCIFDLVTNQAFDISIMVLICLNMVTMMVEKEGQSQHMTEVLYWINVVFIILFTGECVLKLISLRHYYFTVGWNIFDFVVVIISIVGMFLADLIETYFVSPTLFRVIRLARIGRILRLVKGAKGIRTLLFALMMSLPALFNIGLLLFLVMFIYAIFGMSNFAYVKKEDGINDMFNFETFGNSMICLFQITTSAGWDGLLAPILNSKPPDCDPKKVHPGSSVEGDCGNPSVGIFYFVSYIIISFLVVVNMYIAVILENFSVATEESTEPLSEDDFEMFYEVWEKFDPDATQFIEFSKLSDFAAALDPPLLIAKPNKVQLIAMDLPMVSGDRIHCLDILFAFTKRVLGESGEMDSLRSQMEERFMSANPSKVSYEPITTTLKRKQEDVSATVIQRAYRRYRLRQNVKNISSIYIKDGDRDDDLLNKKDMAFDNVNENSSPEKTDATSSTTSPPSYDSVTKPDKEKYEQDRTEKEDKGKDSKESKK

The first experiment concerns the target T1, Nav 1.7 (Homo sapiens, UniProt Q15858).
T1 construct: expressed in transfected cells
The experiment can be described thus: Whole-cell voltage clamp electrophysiology, manual patch clamp (marker b in Table of Examples). Particulars: marker b: Manual patch clamp data; read-out: Nav 1.7 activity. In kind it is cell-based. From the text:
a.IonWork Quattro data, b=Manual patch clamp data, c=Automated patch clamp data M=Method
Whole-Cell Voltage Clamp Electrophysiology Assay
Patch-clamp electrophysiology is considered the gold standard technique for investigation of ion channel function and pharmacology. Using this method, sodium channel currents can be measured in cells, which stably (or transiently) express the sodium channel subtype of interest. Application of compounds during such experiments provides a functional measure of the activity and potency of compounds affecting the ion channel of interest.
Electrophysiological studies can also be performed using the whole cell configuration of the standard manual patch clamp technique as described in the literature (e.g. Pflugers Arch., 1981, 391(2), 85-100). In this assay, cells that express the voltage-gated sodium channel protein of interest are exposed to the drugs by conventional microperfusion systems, or by a home-built perfusion system. A suitable voltage stimulus protocol is used to activate the voltage-gated sodium channels.
A suitable voltage stimulus protocol is used to activate voltage-gated sodium channel proteins of interest. A typical stimulus protocol may consist of sweeps of sequential voltage pulses starting from a holding potential (i.e. −65 mV), to a more positive and depolarising test pulse potential (i.e. −10 mV) and finally to a more negative and hyperpolarising potential (i.e. −100 mV). According to the biophysics of the voltage-gated ion channel of interest and interest in channel configuration the voltages and durations of the pulses as well as the overall frequency of sweeps applied might vary. Accordingly, a stimulus protocol was designed to assess compounds due to their potential to block NaV1.7 channels primarily in inactivated state. Selectivity over other voltage-gated sodium channel members was assessed by protocols that reflect the native function of the channels (i.e. heart rate or firing of neurons).
Electrophysiological studies can also be performed using the whole cell configuration of the standard manual patch clamp technique as described in the literature (e.g. Pflugers Arch., 1981, 391(2), 85-100). In this assay, cells that express the human voltage-gated sodium channel protein of interest are exposed to the drugs by conventional microperfusion systems, or by a home-built perfusion system. A suitable voltage stimulus protocol is used to activate the voltage-gated sodium channels. A suitable voltage stimulus protocol may consist of sequential voltage pulses from a holding potential, each first hyperpolarizing the cell, then depolarizing the channels for a brief period. A particularly suitable holding potential may be a voltage allowing a fraction of channels to remain in an inactivated state, like −60 mV. A suitable hyperpolarizing voltage and duration may be −120 mV for 100 ms, and depolarization voltage and duration may be −20 mV for 25 ms, and a suitable frequency of pulses may be 0.1 Hz, but may also have other parameters. Accordingly, a stimulus protocol was designed to assess compounds due to their potential to block NaV1.7 channels primarily in inactivated state. Selectivity over other voltage-gated sodium channel members was assessed by protocols that reflect the native function of the channels (i.e. heart rate or firing of neurons).
For the compound `Nc1nc(Nc2ccccc2)nc(-c2noc(-c3ccco3)n2)n1` [Example 2, 6-(5-Furan-2-yl-[1,2,4]oxadiazol-3-yl)-N-phenyl-[1,3,5]triazine-2,4-diamine], the pIC50 was 7.04. In the case of `Cc1cccc(N(C)c2nc(N)nc(-c3noc(-c4ccco4)n3)n2)c1` [Example 3, 6-(5-Furan-2-yl-[1,2,4]oxadiazol-3-yl)-N-methyl-N-(3-methylphenyl)-[1,3,5]triazine-2,4-diamine], the pIC50 is 6.57. The same measure, in the same setting: the figure for `Cc1ccc(N(C)c2nc(N)nc(-c3noc(-c4ccco4)n3)n2)cc1` [Example 4, 6-(5-Furan-2-yl-[1,2,4]oxadiazol-3-yl)-N-methyl-N-(4-methylphenyl)-[1,3,5]triazine-2,4-diamine] is 6.18; for `COc1cccc(N(C)c2nc(N)nc(-c3noc(-c4ccco4)n3)n2)c1` [Example 5, 6-(5-Furan-2-yl-[1,2,4]oxadiazol-3-yl)-N-methyl-N-(3-methoxyphenyl)-[1,3,5]triazine-2,4-diamine] it is 6.10; for `COc1ccc(N(C)c2nc(N)nc(-c3noc(-c4ccco4)n3)n2)cc1` [Example 6, 6-(5-Furan-2-yl-[1,2,4]oxadiazol-3-yl)-N-methyl-N-(4-methoxyphenyl)-[1,3,5]triazine-2,4-diamine] it is 5.71. On the same count and under the same terms, next, `CN(c1ccc(Cl)cc1)c1nc(N)nc(-c2noc(-c3ccco3)n2)n1` [Example 8, 6-(5-Furan-2-yl-[1,2,4]oxadiazol-3-yl)-N-methyl-N-(4-chlorophenyl)-[1,3,5]triazine-2,4-diamine]: 6.47; `CN(c1ccccc1)c1nc(N)nc(-c2noc(-c3ccccn3)n2)n1` [Example 9, N-Methyl-N-phenyl-6-(5-pyridin-2-yl-[1,2,4]oxadiazol-3-yl)-[1,3,5]triazine-2,4-diamine]: 6.11; `CN(c1ccccc1)c1nc(N)nc(-c2noc(-c3ccccc3)n2)n1` [Example 10, N-Methyl-N-phenyl-6-(5-phenyl-[1,2,4]oxadiazol-3-yl)-[1,3,5]triazine-2,4-diamine]: 6.46. On to `CN(c1ccccc1)c1nc(N)nc(-c2noc(-c3cccs3)n2)n1` [Example 11, N-Methyl-N-phenyl-6-(5-thiophen-2-yl-[1,2,4]oxadiazol-3-yl)-[1,3,5]triazine-2,4-diamine], for which the pIC50 is 6.67. In the case of `CN(c1ccccc1)c1nc(N)nc(-c2noc(-c3ccc(Cl)s3)n2)n1` [Example 12, N-Methyl-6-[5-(5-chloro-thiophen-2-yl)-[1,2,4]oxadiazol-3-yl]-N-phenyl-[1,3,5]triazine-2,4-diamine], the pIC50 was 5.63.

The next experiment concerns the target T1, Nav 1.7. In words: Whole-cell voltage clamp electrophysiology, automated patch clamp (marker c in Table of Examples). In kind it is cell-based. Particulars: marker c = Automated patch clamp data; read-out: Nav 1.7 activity. The procedure, abridged: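 A voltage protocol weighted toward inactivated-state block was used to test compounds on stably expressing cells, with pulses from −65 mV holding to −10 mV test and −100 mV. Currents came from whole-cell automated patch-clamp recordings, either IonWorks Quattro or other automated instruments, usually in perforated-patch mode.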
As to `CN(c1ccccc1)c1nc(N)nc(-c2noc(N3CC4CCC(C3)O4)n2)n1` [Example 500, 2-N-methyl-6-(5-{8-oxa-3-azabicyclo[3.2.1]octan-3-yl}-1,2,4-oxadiazol-3-yl)-2-N-phenyl-1,3,5-triazine-2,4-diamine], the pIC50 is < 5.04. As to `CN(c1ccccc1)c1nc(N)nc(-c2noc(N3CCC(COCCC(F)(F)F)CC3)n2)n1` [Example 501, 2-N-methyl-2-N-phenyl-6-(5-{4-[(3,3,3-trifluoropropoxy)methyl]piperidin-1-yl}-1,2,4-oxadiazol-3-yl)-1,3,5-triazine-2,4-diamine], the pIC50 is 6.46. `Nc1nc(Nc2ccccc2)nc(-c2noc(-c3cccnc3OCC(F)(F)F)n2)n1` [Example 502, 2-N-phenyl-6-{5-[2-(2,2,2-trifluoroethoxy)pyridin-3-yl]-1,2,4-oxadiazol-3-yl}-1,3,5-triazine-2,4-diamine]: the pIC50 is < 5.05. Regarding `Nc1nc(Nc2ccccc2)nc(-c2noc(N3CC(Oc4ccccc4)C3)n2)n1` [Example 503, 6-[5-(3-phenoxyazetidin-1-yl)-1,2,4-oxadiazol-3-yl]-2-N-phenyl-1,3,5-triazine-2,4-diamine], the pIC50 is 6.34. On to `CC(C)S(=O)(=O)N1CCN(c2nc(-c3nc(N)nc(N(C)c4ccccc4)n3)no2)CC1` [Example 504, 2-N-methyl-2-N-phenyl-6-{5-[4-(propane-2-sulfonyl)piperazin-1-yl]-1,2,4-oxadiazol-3-yl}-1,3,5-triazine-2,4-diamine], for which the pIC50 was < 5.27. As to `CN(c1ccccc1)c1nc(N)nc(-c2noc(C3CCN(C(=O)OC(C)(C)C)CC3)n2)n1` [Example 505, tert-butyl 4-(3-{4-amino-6-[methyl(phenyl)amino]-1,3,5-triazin-2-yl}-1,2,4-oxadiazol-5-yl)piperidine-1-carboxylate], the pIC50 was 6.01. Consider `CN(c1ccccc1)c1nc(N)nc(-c2noc(C3CCN(S(=O)(=O)C4CC4)CC3)n2)n1` [Example 506, 6-{5-[1-(cyclopropanesulfonyl)piperidin-4-yl]-1,2,4-oxadiazol-3-yl}-2-N-methyl-2-N-phenyl-1,3,5-triazine-2,4-diamine], for which the pIC50 is 5.15. In the case of `CC(C)CS(=O)(=O)N1CCC(c2nc(-c3nc(N)nc(N(C)c4ccccc4)n3)no2)CC1` [Example 507, 2-N-methyl-6-(5-{1-[(2-methylpropane)sulfonyl]piperidin-4-yl}-1,2,4-oxadiazol-3-yl)-2-N-phenyl-1,3,5-triazine-2,4-diamine], the pIC50 was 5.91. As to `CCC(C)S(=O)(=O)N1CCC(c2nc(-c3nc(N)nc(N(C)c4ccccc4)n3)no2)CC1` (stereo not drawn) [Example 508, 6-{5-[1-(butane-2-sulfonyl)piperidin-4-yl]-1,2,4-oxadiazol-3-yl}-2-N-methyl-2-N-phenyl-1,3,5-triazine-2,4-diamine], the pIC50 is 5.61.

As to `CN(c1ccccc1)c1nc(N)nc(-c2noc(C3CCN(S(=O)(=O)C4CCCC4)CC3)n2)n1` [Example 509, 6-{5-[1-(cyclopentanesulfonyl)piperidin-4-yl]-1,2,4-oxadiazol-3-yl}-2-N-methyl-2-N-phenyl-1,3,5-triazine-2,4-diamine], the pIC50 is 5.96. For the compound `CC(C)CN1CCC(c2nc(-c3nc(N)nc(N(C)c4ccccc4)n3)no2)CC1` [Example 510, 2-N-methyl-6-{5-[1-(2-methylpropyl)piperidin-4-yl]-1,2,4-oxadiazol-3-yl}-2-N-phenyl-1,3,5-triazine-2,4-diamine], the pIC50 was 5.90. On to `CC(C)(C)OC(=O)N1CCC(c2nc(-c3nc(N)nc(Nc4ccccc4)n3)no2)CC1` [Example 512, tert-butyl 4-{3-[4-amino-6-(phenylamino)-1,3,5-triazin-2-yl]-1,2,4-oxadiazol-5-yl}piperidine-1-carboxylate], for which the pIC50 was 6.22. On the same count and under the same terms, the figure for `Nc1nc(Nc2ccccc2)nc(-c2noc(C3CCN(S(=O)(=O)C4CC4)CC3)n2)n1` [Example 513, 6-{5-[1-(cyclopropanesulfonyl)piperidin-4-yl]-1,2,4-oxadiazol-3-yl}-2-N-phenyl-1,3,5-triazine-2,4-diamine] is 6.20.

For `CCC(C)S(=O)(=O)N1CCC(c2nc(-c3nc(N)nc(Nc4ccccc4)n3)no2)CC1` (stereo not drawn) [Example 514, 6-{5-[1-(butane-2-sulfonyl)piperidin-4-yl]-1,2,4-oxadiazol-3-yl}-2-N-phenyl-1,3,5-triazine-2,4-diamine], the pIC50 is 5.76.

With `CC(C)S(=O)(=O)N1CCC(c2nc(-c3nc(N)nc(Nc4ccccc4)n3)no2)CC1` [Example 515, 2-N-phenyl-6-{5-[1-(propane-2-sulfonyl)piperidin-4-yl]-1,2,4-oxadiazol-3-yl}-1,3,5-triazine-2,4-diamine], the pIC50 is 6.10. Consider `Nc1nc(Nc2ccccc2)nc(-c2noc(C3CCN(S(=O)(=O)C4CCCC4)CC3)n2)n1` [Example 516, 6-{5-[1-(cyclopentanesulfonyl)piperidin-4-yl]-1,2,4-oxadiazol-3-yl}-2-N-phenyl-1,3,5-triazine2,4-diamine], for which the pIC50 is < 5.02. `CN(C)S(=O)(=O)N1CCC(c2nc(-c3nc(N)nc(Nc4ccccc4)n3)no2)CC1` [Example 517, 4-{3-[4-amino-6-(phenylamino)-1,3,5-triazin-2-yl]-1,2,4-oxadiazol-5-yl}-N,N-dimethylpiperidine-1-sulfonamide]: the pIC50 was 6.24.
